The compounds below were run against hQC (Homo sapiens, UniProt Q16769) (assay: QC inhibitor assay (hQC inhibition, Ki and IC50)).
Type: biochemical
Description: All measurements were performed with a BioAssay Reader HTS-7000Plus for microplates (Perkin Elmer) at 30° C. QC activity was evaluated fluorometrically using H-Gln-βNA. The samples consisted of 0.2 mM fluorogenic substrate, 0.25 U pyroglutamyl aminopeptidase (Unizyme, Hørsholm, Denmark) in 0.2 M Tris/HCl, pH 8.0 containing 20 mM EDTA and an appropriately diluted aliquot of QC in a final volume of 250 μl. Excitation/emission wavelengths were 320/410 nm. The assay reactions were initiated by addition of glutaminyl cyclase. QC activity was determined from a standard curve of β-naphthylamine under assay conditions. One unit is defined as the amount of QC catalyzing the formation of 1 μmol pGlu-βNA from H-Gln-βNA per minute under the described conditions.
In a second fluorometric assay, QC was activity determined using H-Gln-AMC as substrate. Reactions were carried out at 30° C. utilizing the NOVOStar reader for microplates (BMG labtechnologies). The samples consisted of varying concentrations of the fluorogenic substrate, 0.1 U pyroglutamyl aminopeptidase (Qiagen) in 0.05 M Tris/HCl, pH 8.0 containing 5 mM EDTA and an appropriately diluted aliquot of QC in a final volume of 250 μl. Excitation/emission wavelengths were 380/460 nm. The assay reactions were initiated by addition of glutaminyl cyclase. QC activity was determined from a standard curve of 7-amino-4-methylcoumarin under assay conditions. The kinetic data were evaluated using GraFit sofware.
This novel assay was used to determine the kinetic parameters for most of the QC substrates. QC activity was analyzed spectrophotometrically using a continuous method, that was derived by adapting a previous discontinuous assay (Bateman, R. C. J. 1989 J Neurosci Methods 30, 23-28) utilizing glutamate dehydrogenase as auxiliary enzyme. Samples consisted of the respective QC substrate, 0.3 mM NADH, 14 mM α-Ketoglutaric acid and 30 U/ml glutamate dehydrogenase in a final volume of 250 μl. Reactions were started by addition of QC and persued by monitoring of the decrease in absorbance at 340 nm for 8-15 min.
The initial velocities were evaluated and the enzymatic activity was determined from a standard curve of ammonia under assay conditions. All samples were measured at 30° C., using either the SPECTRAFIuor Plus or the Sunrise (both from TECAN) reader for microplates. Kinetic data was evaluated using GraFit software.
For inhibitor testing, the sample composition was the same as described above, except of the putative inhibitory compound added. For a rapid test of QC-inhibition, samples contained 4 mM of the respective inhibitor and a substrate concentration at 1 KM. For detailed investigations of the inhibition and determination of Ki-values, influence of the inhibitor on the auxiliary enzymes was investigated first. In every case, there was no influence on either enzyme detected, thus enabling the reliable determination of the QC inhibition. The inhibitory constant was evaluated by fitting the set of progress curves to the general equation for competitive inhibition using GraFit software.

Sequence of hQC (Q16769 29-361): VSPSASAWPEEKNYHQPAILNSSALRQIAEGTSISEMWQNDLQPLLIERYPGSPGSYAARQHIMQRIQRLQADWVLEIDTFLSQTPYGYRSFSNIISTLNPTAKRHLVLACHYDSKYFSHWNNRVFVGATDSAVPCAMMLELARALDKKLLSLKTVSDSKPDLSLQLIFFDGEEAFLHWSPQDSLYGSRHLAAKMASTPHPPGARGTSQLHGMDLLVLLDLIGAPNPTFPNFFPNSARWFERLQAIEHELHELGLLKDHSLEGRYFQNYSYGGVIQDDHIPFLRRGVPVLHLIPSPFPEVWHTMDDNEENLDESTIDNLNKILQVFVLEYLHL

| SMILES | IC50 | Ki |
| --- | --- | --- |
| COC1=C(C)C(C2CCC(c3ccccc3)CC2)N(c2ccc3nc[nH]c3c2)C1=O (stereo not drawn) [Example 32, 1-(1H-Benzo[d]imidazol-6-yl)-3-methoxy-4-methyl-5-(4-phenylcyclohexyl)-1H-pyrrol-2(5H)-one] | 821 nM | 164 nM |
| COC1=C(C)[C@H](c2cccc(F)c2F)N(c2ccc3nc[nH]c3c2)C1=O (single isomer, unassigned) [Example 9] | 18.7 nM | 4.7 nM |
| COC1=C(C)C(c2ccc(C3CCCCC3)cc2)N(c2ccc3nc[nH]c3c2)C1=O (stereo not drawn) [Example 25, 1-(1H-Benzo[d]imidazol-6-yl)-5-(4-cyclohexylphenyl)-3-methoxy-4-methyl-1H-pyrrol-2(5H)-one] | 195 nM | 45.3 nM |
| COC1=C(c2ccccc2)C(c2cc(F)cc(F)c2F)N(c2ccc3[nH]cnc3c2)C1=O (stereo not drawn) [Example 5, 1-(1H-Benzo[d]imidazol-5-yl)-5-(2,3,5-trifluorophenyl)-3-methoxy-4-phenyl-1H-pyrrol-2(5H)-one] | 317 nM | 54.9 nM |
| COC1=C(C)C(c2ccc(C3CCC(F)(F)CC3)cc2)N(c2ccc3nc[nH]c3c2)C1=O (stereo not drawn) [Example 26, 1-(1H-Benzo[d]imidazol-6-yl)-5-(4-(4,4-difluorocyclohexyl)phenyl)-3-methoxy-4-methyl-1H-pyrrol-2(5H)-one] | 292 nM | 36.2 nM |
| COC1=C(C)C(c2ccc(C3CCC(N4CCOCC4)CC3)cc2)N(c2ccc3nc[nH]c3c2)C1=O (stereo not drawn) [Example 29, 1-(1H-Benzo[d]imidazol-6-yl)-3-methoxy-4-methyl-5-(4-(4-morpholinocyclo-hexyl)phenyl)-1H-pyrrol-2(5H)-one] | 221 nM | 18.7 nM |
| COC1=C(C)[C@@H](c2cccc(F)c2F)N(c2ccc3nc[nH]c3c2)C1=O (single isomer, unassigned) [Example 10] | 169 nM | 32.3 nM |
| COC1=C(C)C(c2cccc(Cl)c2Cl)N(c2ccc3[nH]cnc3c2)C1=O (stereo not drawn) [Example 17, 1-(1H-Benzo[d]imidazol-6-yl)-5-(2,3-dichlorophenyl)-3-methoxy-4-methyl-1H-pyrrol-2(5H)-one] | 557 nM | 46.6 nM |
| COC1=C(C)C(c2cccc(F)c2F)N(c2ccc3nc[nH]c3c2)C1=O (stereo not drawn) [Example 8, 1-(1H-Benzo[d]imidazol-6-yl)-5-(2,3-difluorophenyl)-3-methoxy-4-methyl-1H-pyrrol-2(5H)-one] | 117 nM | 20.9 nM |

From patent US8269019B2, “Inhibitors” (Probiodrug AG, priority 2010, dated 2012)
